Tests used:
[1] = tested on: Non-Small-Cell Lung Cancer; test: Response rate of Iressa in Japanese NSCLC patients, without and with filtering by the serum mass spectrometer test; type: in vivo, human; details: Japanese population
Experimental: Continuing with FIG. 3, step 312, learning may be utilized in generating classifiers for a training set of spectra. In the case of sampling serum for detecting whether an anti-cancer drug will be effective on non-small-cell lung cancer, control groups of patients were utilized, including using three sets of patients whose cancer progressed following chemotherapy. Each of the patients was treated with Iressa and information, including survival times, of these patients was recorded. […] Each data set represents the cancer research center from which spectra and associated patient information was received.
TABLE III is a summary of the data set attributes used in a study to determine whether a classifier algorithm could be effective in determining whether a cancer patient would be responsive to Iressa. Data sets Italian 1, Italian 2, Japan 1, and Japan 2 were treated with Iressa following sample collection. Training and testing in the development phase was done crosswise from the Italian 1 sets and the two Japanese sets. The patient data included survival data, where the Italian set had very complete patient history together with treatment and cancer type, the Japanese sets only included prognostic information relating to the WHO definitions of clinical labels, including stable disease (SD), progressive disease (PD), and partial responders (PR) measured by CT imaging. […]

[2] = tested on: Non-Small-Cell Lung Cancer; details: NSCLC patients in Asia, compared with Caucasian populations; cited from earlier work

COc1cc2ncnc(Nc3ccc(F)c(Cl)c3)c2cc1OCCCN1CCOCC1 [Iressa, gefitinib]
response rate of Iressa ([1]; after serum based mass spectrometer test filters non-responders from responders): 90% | response rate of Iressa ([1]; before filtering non-responders from responders): 65% | response rate [2]: considerably higher
